Laboratory results reported in patent US9540397B2, “BACE1 inhibitors” (Hoffmann-La Roche Inc., priority 2014, dated 2017).

Tests used:
[1] = tested on: Aβ40 in brain of wild-type mice; assay: Lowering of Aβ40 in brain of wild-type mice; assay type: in vivo; conditions: Mus musculus, po; female C57Bl/6J mice, 30 mg/kg per os, 4 h; brain Aβ40 related to the value in the vehicle group; read-out: Aβ40 (wt mice, brain)
Protocol: Lowering of Aβ40 in Brain of Wild-Type Mice:
Animals and Housing Conditions.
Animals were maintained in a 12/12 h light/dark cycle, with lights starting at 6 a.m., and experiments were conducted during the light phase. Animal housing and experimental procedures were in line with ethical and legal guidelines and were authorized by local veterinary authorities.
Experiment. Female C57Bl/6J mice were treated with a dose of 30 mg/kg of the compounds, 3-4 animals per treatment group. The test compound was dissolved in 5% EtOH, 10% Solutol, and was applied per os at 10 mL/kg. After 4 h, the animals were sacrificed and brain and plasma were collected. The brain was cut into halves and immediately frozen on dry ice. Brain was used for measurement of Aβ40 and plasma was used for determination of compound exposure. […] Brain tissue was homogenized in 2% DEA buffer in a Roche MagnaLyser (20″, 4000 rpm) and subsequently centrifuged for 1 h at 100000 g. DEA was reduced to 0.2% in 50 mM NaCl and one-half of the DEA lysate was passed over an Oasis Solid phase extraction plate (Waters; cat. no. 186000679), which had been activated with MeOH and equilibrated in dH2O (1 mL each). After washes in 10% and 30% MeOH (1 mL each), the Aβ-peptides were eluted in 0.8 mL of 2% NH4OH in 90% MeOH. The eluate was dried over a N2 flow, and the dried sample was reconstituted in 30 μL of AlphaLISA assay buffer. Aβ40 was determined by an AlphaLISA assay (Perkin-Elmer). In a white 96-well, half area microplate (Perkin-Elmer cat. no. 6005561), 20 μL of the reconstituted sample were mixed with 5 μL of biotinylated BAP-24 (specific for C-terminus of Aβ40) (Brockhaus, M.; Grunberg, J.; Rohrig, S.; Loetscher, H.; Wittenburg, N.; Baumeister, R.; Jacobsen, H.; Haass, C. Caspasemediated cleavage is not required for the activity of presenilins in amyloidogenesis and NOTCH signaling. NeuroReport 1998, 9, 1481-1486.) stock=4.4 mg/mL, f.c.5.5 μg/mL), and 5 μL 252Q6 acceptor beads (252Q6 antibody, Invitrogen AMB0062) had been previously conjugated with AlphaLISA Acceptor beads (Perkin-Elmer cat. no. 6772002); final dilution 1:500). The mix was incubated for 1 h at RT in the dark. Then 20 μL of Streptavin-coated Donor Beads (Perkin-Elmer cat. no. 6760002, final dilution 1:125) were added and this final mix was incubated in the dark for another 30 min at RT before RFU was measured in an AlphaScreen Reader (Perkin-Elmer Envision 2104). The value obtained for Aβ40 in the treated animals was related to the value in the vehicle group and is given in %. Alternatively a commercial ELISA was used for Aβ40 determination (Wako ELISA: (“Human/Rat β Amyloid (40) ELISA kit Wako II”; cat nr. 294-64701) following the manufacture's instruction. Also here the Aβ-lowering efficacy was calculated as percentage of the vehicle group.

BACE1 = molecular target: T1, BACE1 (Homo sapiens, UniProt P56817); assay: Cellular Aβ-lowering assay (Abeta 40 AlphaLISA, HEK293 APP cells); assay type: cell-based; conditions: 18-20 hrs incubation, Aβ40 in culture supernatant, read-out: BACE1 cell act. Aβ40 IC50
T1 construct: endogenous in cells; host or cells: HEK293 APP cells
T1 sequence (P56817 46-501): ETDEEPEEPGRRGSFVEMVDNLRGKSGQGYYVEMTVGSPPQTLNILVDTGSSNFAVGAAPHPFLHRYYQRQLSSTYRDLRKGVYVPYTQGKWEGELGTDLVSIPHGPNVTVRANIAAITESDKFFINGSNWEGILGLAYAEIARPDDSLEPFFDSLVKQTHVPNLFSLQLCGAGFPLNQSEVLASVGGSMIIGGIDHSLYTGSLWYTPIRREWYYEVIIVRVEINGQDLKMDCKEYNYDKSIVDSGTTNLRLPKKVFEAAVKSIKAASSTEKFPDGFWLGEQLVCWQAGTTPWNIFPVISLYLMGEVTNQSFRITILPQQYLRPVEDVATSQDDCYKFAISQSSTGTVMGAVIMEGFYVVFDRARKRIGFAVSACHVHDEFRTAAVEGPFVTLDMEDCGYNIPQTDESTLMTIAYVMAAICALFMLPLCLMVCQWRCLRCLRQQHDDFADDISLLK
Protocol: Cellular Aβ-lowering assay:
The Abeta 40 AlphaLISA Assay can be used. The HEK293 APP cells were seeded in 96 well Microtiter plates in cell culture medium (Iscove's, plus 10% (v/v) fetal bovine serum, penicillin/streptomycin) to about 80% confluency and the compounds were added at a 3× concentration in ⅓ volume of culture medium (final DMSO concentration was kept at 1% v/v). After 18-20 hrs incubation at 37° C. and 5% CO2 in a humidified incubator, the culture supernatants were harvested for the determination of AP 40 concentrations using Perkin-Elmer Human Amyloid beta 1-40 (high specificity) Kit (Cat#AL275C).
In a Perkin-Elmer White Optiplate-384 (Cat#6007290), 2 ul culture supernatants were combined with 2 μl of a 10× AlphaLISA Anti-hAβ Acceptor beads+Biotinylated Antibody Anti-Aβ 1-40 Mix ([…]/5 nM). After 1 hour room temperature incubation, 16 μl of a 1.25× preparation of Streptavidin (SA) Donor beads (25 μg/mL) were added and incubated for 30 minutes in the Dark. Light Emission at 615 nm was then recorded using EnVision-Alpha Reader. Levels of Aβ 40 in the culture supernatants were calculated as percentage of maximum signal (cells treated with 1% DMSO without inhibitor). The IC50 values were calculated using the Excel XLfit software.

IC50 (BACE1) [nM]	SMILES	response vs control in vivo at 30 mg/kg [1] [%]
14.9	Cc1cc(C#N)cnc1C(=O)Nc1ccc(F)c([C@@]2(C)N=C(N)C(C)(C)[S@]3(=O)=NCC[C@H]23)n1 [Example 9BA, N-(6-((3aR,4R,8S)-6-amino-4,7,7-trimethyl-8-oxido-3,3a,4,7-tetrahydro-2H-isothiazolo[1,5-a][1,4]thiazin-4-yl)-5-fluoropyridin-2-yl)-5-cyano-3-methylpicolinamide]	86
0.6	Cc1cc(C#N)cnc1C(=O)Nc1ccc(F)c([C@@]2(C)N=C(N)C(C)(C)[S@@]3(=O)=NCCC[C@H]23)n1 [Example 1AA, N-(6-((4aR,5R,9R)-7-amino-5,8,8-trimethyl-9-oxido-2,3,4,4a,5,8-hexahydro-[1,4]thiazino[2,1-f][1,2]thiazin-5-yl)-5-fluoropyridin-2-yl)-5-cyano-3-methylpicolinamide]	38
26.6	CC1(C)C(N)=N[C@](C)(c2nc(NC(=O)c3ncc(OC(F)F)cc3Cl)ccc2F)[C@H]2CC(F)(F)CN=[S@@]21=O [Example 45AA, N-(6-((4aR,5R,9R)-7-amino-3,3-difluoro-5,8,8-trimethyl-9-oxido-2,3,4,4a,5,8-hexahydro-[1,4]thiazino[2,1-f][1,2]thiazin-5-yl)-5-fluoropyridin-2-yl)-3-chloro-5-(difluoromethoxy)-picolinamide]	85
21.7	COc1cnc(C(=O)Nc2ccc(F)c([C@@]3(C)N=C(N)C(C)(C)[S@]4(=O)=NCCC[C@H]34)n2)cn1 [Example 2BA, N-(6-((4aR,5R,9S)-7-amino-5,8,8-trimethyl-9-oxido-2,3,4,4a,5,8-hexahydro-[1,4]thiazino[2,1-f][1,2]thiazin-5-yl)-5-fluoropyridin-2-yl)-5-methoxypyrazine-2-carboxamide]	87
56	CC1(C)C(N)=N[C@](C)(c2nc(NC(=O)c3ccc(Cl)cn3)ccc2F)[C@H]2CC(F)(F)CN=[S@@]21=O [Example 43AA, N-(6-((4aR,5R,9R)-7-amino-3,3-difluoro-5,8,8-trimethyl-9-oxido-2,3,4,4a,5,8-hexahydro-[1,4]thiazino[2,1-f][1,2]thiazin-5-yl)-5-fluoropyridin-2-yl)-5-chloropicolinamide]	80
28.5	Cc1c(C(=O)Nc2ccc(F)c([C@@]3(C)N=C(N)C(C)(C)[S@@]4(=O)=NCCC[C@H]34)n2)nc2ccc(Cl)cn12 [Example 6AA, N-(6-((4aR,5R,9R)-7-amino-5,8,8-trimethyl-9-oxido-2,3,4,4a,5,8-hexahydro-[1,4]thiazino[2,1-f][1,2]thiazin-5-yl)-5-fluoropyridin-2-yl)-6-chloro-3-methylimidazo[1,2-a]pyridine-2-carboxamide]	103
10	Cc1cc(F)cnc1C(=O)Nc1ccc(F)c([C@@]2(C)N=C(N)C(C)(C)[S@@]3(=O)=NCC[C@@H]23)n1 [Example 10AB, N-(6-((3aS,4R,8R)-6-amino-4,7,7-trimethyl-8-oxido-3,3a,4,7-tetrahydro-2H-isothiazolo[1,5-a][1,4]thiazin-4-yl)-5-fluoropyridin-2-yl)-5-fluoro-3-methylpicolinamide]	71
0.1	CC1(C)C(N)=N[C@](C)(c2nc(NC(=O)c3ncc(C#N)cc3Cl)ccc2F)[C@H]2CC3(CC3)CN=[S@@]21=O [Example 49AA, N-(6-((4aR,5R,9R)-7-amino-5,8,8-trimethyl-9-oxido-4,4a,5,8-tetrahydro-2H-spiro[[1,4]-thiazino[2,1-f][1,2]thiazine-3,1′-cyclopropan]-5-yl)-5-fluoropyridin-2-yl)-3-chloro-5-cyanopicolinamide]	106
146	CC1(C)C(N)=N[C@](C)(c2nc(NC(=O)c3ccc(OCC(F)(F)C(F)F)cn3)ccc2F)[C@@H]2CCN=[S@@]21=O [Example 15AB, N-(6-((3aS,4R,8R)-6-amino-4,7,7-trimethyl-8-oxido-3,3a,4,7-tetrahydro-2H-isothiazolo[1,5-a][1,4]thiazin-4-yl)-5-fluoropyridin-2-yl)-5-(2,2,3,3-tetrafluoropropoxy)picolinamide]	100
1.2	Cc1cc(C#N)cnc1C(=O)Nc1ccc(F)c([C@@]2(C)N=C(N)C(C)(C)[S@@]3(=O)=NCC(F)(F)C[C@H]23)n1 [Example 32AA, N-(6-((4aR,5R,9R)-7-amino-3,3-difluoro-5,8,8-trimethyl-9-oxido-2,3,4,4a,5,8-hexahydro-[1,4]thiazino[2,1-f][1,2]thiazin-5-yl)-5-fluoropyridin-2-yl)-5-cyano-3-methylpicolinamide]	53
0.6	CC1(C)C(N)=N[C@](C)(c2nc(NC(=O)c3ncc(Cl)cc3Cl)ccc2F)[C@@H]2CCN=[S@@]21=O [Example 29AB, N-(6-((3aS,4R,8R)-6-amino-4,7,7-trimethyl-8-oxido-3,3a,4,7-tetrahydro-2H-isothiazolo[1,5-a][1,4]thiazin-4-yl)-5-fluoropyridin-2-yl)-3,5-dichloropicolinamide]	88
19.4	Cc1cc(Cl)cnc1C(=O)Nc1ccc(F)c([C@@]2(C)N=C(N)C(C)(C)[S@@]3(=O)=NCC(F)(F)C[C@H]23)n1 [Example 42AA, N-(6-((4aR,5R,9R)-7-amino-3,3-difluoro-5,8,8-trimethyl-9-oxido-2,3,4,4a,5,8-hexahydro-[1,4]thiazino[2,1-f][1,2]thiazin-5-yl)-5-fluoropyridin-2-yl)-5-chloro-3-methylpicolinamide]	85
7.7	CC1(C)C(N)=N[C@](C)(c2nc(NC(=O)c3cnc(OC(F)F)cn3)ccc2F)[C@@H]2CCN=[S@@]21=O [Example 26AB, N-(6-((3aS,4R,8R)-6-amino-4,7,7-trimethyl-8-oxido-3,3a,4,7-tetrahydro-2H-isothiazolo[1,5-a][1,4]thiazin-4-yl)-5-fluoropyridin-2-yl)-5-(difluoromethoxy)pyrazine-2-carboxamide]	82
2.3	Cc1cc(C#N)cnc1C(=O)Nc1ccc(F)c([C@@]2(C)N=C(N)C(C)(C)[S@@]3(=O)=NCCC[C@@H]23)n1 [Example 1AB, N-(6-((4aS,5R,9R)-7-amino-5,8,8-trimethyl-9-oxido-2,3,4,4a,5,8-hexahydro-[1,4]thiazino[2,1-f][1,2]thiazin-5-yl)-5-fluoropyridin-2-yl)-5-cyano-3-methylpicolinamide]	79
87.4	CC1(C)C(N)=N[C@](C)(c2nc(NC(=O)c3ccc(OC(F)F)cn3)ccc2F)[C@H]2CC(F)(F)CN=[S@@]21=O [Example 35AA, N-(6-((4aR,5R,9R)-7-amino-3,3-difluoro-5,8,8-trimethyl-9-oxido-2,3,4,4a,5,8-hexahydro-[1,4]thiazino[2,1-f][1,2]thiazin-5-yl)-5-fluoropyridin-2-yl)-5-(difluoromethoxy)picolinamide]	101
